Test results reported in patent US20040254629A1, “Methods and apparatus for treatment of aneurysmal tissue” (priority 2003, published 2004).

Tests used:
[1] = test system: IL-1α expression in stimulated human-derived white blood cells; assay: Combination therapeutic assay, IL-1α content; assay type: cell-based; conditions: DOX at 5.69 ug/ml, DEX at 1 ug/ml, alone or combined; 24 hours at 37° C.
Method: To assay for cytokine concentration, the solution in each test well was transferred to microcentrifuge tubes and centrifuged (3000 rpm) for 5 minutes to pellet any cells that were drawn from the wells. The supernatants were then transferred to fresh tubes and stored in a minus 85° C. freezer until used. The cytokine content in the stored supernatants was determined using commercially available cytokine ELISA- (enzyme linked immunosorbent assays) based assays from, for example, R&D Systems, Minneapolis, Minn., using the manufacturer's instructions. Essentially, the procedure was as follows: first, 200 μl of the test samples were added to each well of the microplates. The wells of the microplates were precoated with monoclonal antibodies specific to the cytokine being analyzed. All lipopolysaccharide-(LPS) treated samples were diluted 1:10 in RPMI growth media prior to the assay. The plates were covered and incubated for 2 hours at room temperature. Each well was then washed three times with wash buffer (350 μl/well), and 200 μl of cytokine conjugate were added to each well, covered, and incubated for 1 hour at room temperature. Next, 200 μl of substrate solution were added to each well and incubated for 20 minutes at room temperature. […] The optical density readings of the color development were determined in a microplate reader set at 450 nm wavelength. […]

[2] = test system: MMP-9 secretion from PHA-stimulated human white blood cells; assay: MMP assay: effect of doxycycline on MMP-9 secretion from PHA-stimulated human white blood cells; assay type: cell-based; conditions: PHA 10 μg/ml
Method: To perform an MMP assay to assess the effect of doxycycline on human-derived white blood cells, cells were seeded into 24 well tissue culture plates. The drug concentrations selected for the experiment were based on measured tissue levels of doxycycline following an oral dose of 100 mg. The cells were exposed to the drugs under two schemes. In scheme 1, the cells, the stimulant and the drug were all added at the same time and allowed to incubate for a period of 24 hours. In scheme 2 the cells were preconditioned with the drug for a period of 24 hours and then stimulated with PHA for an additional 24 hours. In this case the total experimental time duration was 48 hours. The seeding densities: 5×10^6 cells per well and assay conditions were as follows: PHA at a working concentration of 10 μg/ml; doxycycline concentrations at 0, 2.5, 5, 10, 12, or 15 μM and either a 24 hour (scheme 1) or 48 hour (scheme 2) duration. MMP-9 analysis was performed using a Quantikine Human MMP-9 (total) Immunoassay (R&D Systems, #DMP900).

[3] = test system: MMP-9 expression in stimulated human-derived white blood cells; assay: Combination therapeutic assay, MMP-9 content; assay type: cell-based; conditions: DOX at 5.69 ug/ml, DEX at 1 ug/ml, alone or combined; 24 hours at 37° C.
Method: Next, to test the effect of therapeutics in combination, assays were performed to determine the effect of doxycycline alone (DOX at 5.69 ug/ml); dexamethasone alone (DEX at 1 ug/ml) and the effect of a combination of doxycycline and dexamethasone (DOX at 5.69 ug/ml)+DEX at 1 ug/ml). Dexamethasone is a potent agent with broad anti-inflammatory (against cytokines, chemokines, prostaglandins, etc.) and immunosuppressive properties. Dexamethasone also has known anti-angiogenic properties. Doxycycline was used as the MMP inhibitor for these studies.
Briefly, human-derived white blood cells were placed in a 24 well plate and exposed to a stimulant (PHA or lipopolysaccharide (LPS)) and the three different treatment regimes for a period of 24 hours at 37° C. The supernatants were then collected and assayed for MMP-9 and IL-1 content.

[4] = Stability assay of doxycycline and dexamethasone in combination; assay type: physicochemical; conditions: DOX (56.9 ug/ml)+DEX (10 ug/ml) mixture, 4 days at 37° C.
Method: A stability assay was first performed to ascertain whether doxycycline and dexamethasone react with one another. High concentrations of each solution were combined (DOX (56.9 ug/ml)+DEX (10 ug/ml)) and allowed to incubate for 4 days at 37° C. in an orbital shaker. At the end of four days the concentrations of each drug in the mixture was determined by spectrophotometry and compared to the original concentrations.

[5] = cited from earlier work; for elimination / clearance route: in vivo
[6] = target: ACE (Homo sapiens, UniProt P12821); conditions: in vitro; cited from earlier work
Chain of ACE (P12821 30-1306, species assumed): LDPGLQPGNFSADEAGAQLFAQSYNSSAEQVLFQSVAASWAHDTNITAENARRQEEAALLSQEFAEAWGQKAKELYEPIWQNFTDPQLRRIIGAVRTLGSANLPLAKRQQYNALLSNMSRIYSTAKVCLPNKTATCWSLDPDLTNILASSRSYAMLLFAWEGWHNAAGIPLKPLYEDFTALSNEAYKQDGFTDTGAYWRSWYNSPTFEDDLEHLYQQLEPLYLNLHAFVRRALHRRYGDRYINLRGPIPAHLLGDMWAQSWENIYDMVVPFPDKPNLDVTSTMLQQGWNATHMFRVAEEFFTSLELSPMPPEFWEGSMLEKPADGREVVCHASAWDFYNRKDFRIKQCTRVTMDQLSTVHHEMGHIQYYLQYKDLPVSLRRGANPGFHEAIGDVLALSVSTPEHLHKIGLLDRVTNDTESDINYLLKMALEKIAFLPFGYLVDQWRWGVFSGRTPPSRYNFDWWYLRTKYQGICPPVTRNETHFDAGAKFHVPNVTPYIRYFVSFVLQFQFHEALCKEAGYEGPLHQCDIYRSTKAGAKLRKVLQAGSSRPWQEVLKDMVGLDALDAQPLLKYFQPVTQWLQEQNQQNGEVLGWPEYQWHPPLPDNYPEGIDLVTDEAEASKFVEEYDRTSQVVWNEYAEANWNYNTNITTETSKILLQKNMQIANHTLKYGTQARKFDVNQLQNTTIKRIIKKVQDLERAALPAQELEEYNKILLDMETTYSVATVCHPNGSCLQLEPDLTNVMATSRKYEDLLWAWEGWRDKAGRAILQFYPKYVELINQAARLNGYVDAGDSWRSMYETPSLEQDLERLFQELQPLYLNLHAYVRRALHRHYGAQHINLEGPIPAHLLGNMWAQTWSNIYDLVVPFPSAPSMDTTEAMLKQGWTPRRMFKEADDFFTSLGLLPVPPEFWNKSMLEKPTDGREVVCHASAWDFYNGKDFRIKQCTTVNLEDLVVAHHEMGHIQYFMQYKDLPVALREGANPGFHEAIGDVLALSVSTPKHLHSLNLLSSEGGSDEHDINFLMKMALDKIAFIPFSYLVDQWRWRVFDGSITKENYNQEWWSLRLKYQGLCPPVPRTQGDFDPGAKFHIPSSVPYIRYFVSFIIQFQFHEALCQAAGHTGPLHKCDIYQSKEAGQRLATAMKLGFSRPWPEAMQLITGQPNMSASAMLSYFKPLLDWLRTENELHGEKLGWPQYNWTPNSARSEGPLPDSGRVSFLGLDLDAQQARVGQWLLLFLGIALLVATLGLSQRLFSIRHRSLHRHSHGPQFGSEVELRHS

[7] = test system: MMP-9 secretion from human-derived white blood cells; assay: MMP assay development: effect of stimulants on MMP-9 release from human-derived white blood cells; assay type: cell-based; conditions: PHA 10 μg/ml alone, five million (5M) cells per well, 24 hours at 37° C.
From the text: MMP assay development involved two separate determinations. The first set of experiments established the working conditions for the assay, namely the optimal cell density and the choice and concentration of stimulant. MMP-9 is secreted by monocytes, macrophages, and neutrophils, amongst other cells; however, under non-stimulatory in vitro conditions the basal level secretion of MMP-9 by these cells is very low. Thus, for the second set of experiments (performed to determine the inhibitory effects of potential drugs or reagents), the levels of MMP secretion were raised to sufficiently high levels so that drug-mediated differences could be detected.
Human-derived white blood cells were isolated from human blood by a procedure such as that described above. The total cell population was adjusted and added to 24 well polystyrene tissue culture plates in the following cell densities: 5 million, 2 million, 1 million and 0.5 million per well. The stimulants used to stimulate MMP secretion were PMA (phorbol 12-myristate 13-acetate, Sigma #P8139) at a working concentration of 100 nM; PHA (phythohemagglutinin, Sigma #L9017) at a working concentration of 10 μg/ml; and PMA (100 nM)+PHA (10 μg/ml). […] The secreted MMP was determined by ELISA using a Quantikine Human MMP-9 (total) Immunoassay (R&D Systems, #DMP900).

C[C@@H]1C[C@H]2[C@@H]3CCC4=CC(=O)C=C[C@]4(C)[C@@]3(F)[C@@H](O)C[C@]2(C)[C@@]1(O)C(=O)CO [DEX, dexamethasone]
inhibition of IL expression compared to the control [1]: approximately 85%

CC1c2cccc(O)c2C(=O)C2=C(O)C3(O)C(=O)C(C(N)=O)=C(O)C(N(C)C)C3C(O)C21.O (stereo not shown) [DOX, 4-(Dimethylamino)-1,4,4a,5,5a,6,11, 12a-octahydro-3,5,10,12,12a-pentahydroxy-6-methyl-1,11-dioxo-2-naphthacenecarboxamide monohydrate]
effect on MMP-9 expression over 0-15 μM ([2]; doxycycline 0, 2.5, 5, 10, 12, or 15 μM): dose-dependent inhibitory effect
inhibition of MMP-9 expression ([2]; doxycycline at 15 μM, 5×10^6 cells per well, scheme 1 (24 hour) or scheme 2 (48 hour)): ~60%
inhibition of MMP-9 compared to the control [3]: approximately 32%
inhibition of IL expression compared to the control [1]: no effect on inflammatory cytokine expression
Final Concentration ([4]; MES buffer): ˜56.7 ug/ml
Final Concentration ([4]; PBS buffer): ˜57.5/ml ug/ml

C[C@H](CS)C(=O)N1CCC[C@H]1C(=O)O [captopril]
bioavailability ([5]; given orally): about 75%

CCC(=O)O[C@@H](O[P@](=O)(CCCCc1ccccc1)CC(=O)N1C[C@H](C2CCCCC2)C[C@H]1C(=O)O)C(C)C [fosinopril]
elimination / clearance route [5]: balanced elimination by the liver and kidneys

NCCCC[C@H](N[C@@H](CCc1ccccc1)C(=O)O)C(=O)N1CCC[C@H]1C(=O)O [lisinopril]
ACE inhibitor potency compared with enalaprilat [6]: slightly more potent
time of peak concentrations in the plasma ([5]; oral administration): about 7 hours

CCOC(=O)[C@H](CCc1ccccc1)N[C@@H](C)C(=O)N1CC2(C[C@H]1C(=O)O)SCCS2 [spirapril]
elimination / clearance route [5]: balanced elimination by the liver and kidneys

phythohemagglutinin [PHA]
increase in MMP-9 secretion over basal levels [7]: greater than 200 fold
